This is an account of results in article PMC8868331, “Hydroxamic Acid as a Potent Metal-Binding Group for Inhibiting Tyrosinase” (Antioxidants, 2022).

Assay [1] deals with mandelate racemase. More on the design: method as in PMID 17055725. The settings on record: cited from earlier work.
In assay [2] the test system is carbonic anhydrase. More on the design: method as in PMID 22836518. The settings on record: cited from earlier work.
Assay [3] has as its target mushroom tyrosinase (Agaricus bisporus, UniProt C7FF04). Briefly: Differential scanning fluorimetry (DSF) with SYPRO Orange. The settings on record: 500 μM inhibitor; for Tm: mean ± SD of three experiments, DMSO control 49.16. In kind it is binding. The procedure:
Differential scanning fluorimetry—Differential scanning fluorimetry (DSF) was used to characterize the direct binding of inhibitors to tyrosinase. In the absence and presence of 500 μM inhibitor, SYPRO® Orange was added to the enzyme solution. […] Time- and temperature-dependent signals were observed using the RT-PCR CFX96 system from BioRad (Hercules, CA, USA). The following equation was nonlinearly minimized to determine the mid-point melting temperature (Tm). I(T)=LL+UL−LL/[1+exp(Tm−T/a)] where UL and LL indicate the top and baseline of the curves, respectively, and a indicates the steepness of the slope.
We used differential scanning fluorimetry (DSF) to verify whether active small molecules identified by biochemical assays bound to tyrosinase directly. DSF was used to evaluate the fluorescence profiles of the dye SYPRO® Orange in a mixture with the protein upon elevating the temperature. The alteration in the unfolding process in the presence of a direct binder can shift the DSF pattern.
A general note: DSF heats the sample and reads unfolding from a dye or from intrinsic fluorescence.

In assay [4] the target is mushroom tyrosinase from Agaricus bisporus (Agaricus bisporus, UniProt C7FF04). Put plainly: Enzyme-activity assay with mushroom tyrosinase, L-DOPA substrate, dopachrome absorbance at 475 nm. The format is biochemical.
mushroom tyrosinase from Agaricus bisporus, sequence (C7FF04 1-392): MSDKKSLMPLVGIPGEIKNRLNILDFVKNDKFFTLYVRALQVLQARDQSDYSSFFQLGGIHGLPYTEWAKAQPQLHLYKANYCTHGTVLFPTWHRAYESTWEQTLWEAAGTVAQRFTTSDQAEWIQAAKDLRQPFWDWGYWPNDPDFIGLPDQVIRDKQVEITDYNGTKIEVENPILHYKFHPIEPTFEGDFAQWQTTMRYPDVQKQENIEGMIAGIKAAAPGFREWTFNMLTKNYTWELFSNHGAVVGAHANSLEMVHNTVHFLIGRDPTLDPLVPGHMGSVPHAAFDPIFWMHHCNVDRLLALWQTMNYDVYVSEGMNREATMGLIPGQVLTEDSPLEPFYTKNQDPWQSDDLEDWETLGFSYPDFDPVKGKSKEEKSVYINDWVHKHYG
Assay [5] deals with arachidonate 5-lipoxygenase. More on the design: method as in PMID 3820229. The settings on record: cited from earlier work.
Assay [6] deals with T1, mammalian tyrosinase in B16F10 cell lysates (Mus musculus, UniProt P11344).
T1 construct: The cell extracts having tyrosinase activity were prepared; host or cells: B16F10 murine melanoma cells, stimulated with 3-isobutyl-1-methylxanthine, lysate
T1 sequence (P11344 19-533): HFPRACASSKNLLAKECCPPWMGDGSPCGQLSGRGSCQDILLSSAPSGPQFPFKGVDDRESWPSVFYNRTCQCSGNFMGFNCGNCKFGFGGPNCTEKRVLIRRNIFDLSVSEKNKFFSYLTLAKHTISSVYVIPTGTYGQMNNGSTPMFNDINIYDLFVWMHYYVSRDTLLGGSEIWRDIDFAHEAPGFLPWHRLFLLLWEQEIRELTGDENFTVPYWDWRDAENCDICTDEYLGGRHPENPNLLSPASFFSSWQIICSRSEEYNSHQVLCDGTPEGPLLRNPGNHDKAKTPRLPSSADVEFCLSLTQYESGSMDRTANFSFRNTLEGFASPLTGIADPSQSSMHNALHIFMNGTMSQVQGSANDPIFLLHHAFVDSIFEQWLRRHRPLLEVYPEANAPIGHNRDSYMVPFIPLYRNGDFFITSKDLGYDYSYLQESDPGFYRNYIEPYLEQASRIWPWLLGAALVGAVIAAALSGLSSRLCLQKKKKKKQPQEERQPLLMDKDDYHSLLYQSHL
Put plainly: Cell-lysate-based tyrosinase activity assay. In kind it is biochemical, murine. The settings on record: 50 μM, relative to untreated control. The procedure:
Cell-lysate-based activity assays with inhibitors—Cell-lysate-based assays were performed using B16F10 murine melanoma cells obtained from the Korean Cell Line Bank (Seoul, Korea). The B16F10 cells were grown to a density of 1 × 10^5 cells in Dulbecco’s modified Eagle’s medium supplemented with 10% fetal bovine serum and 1% penicillin−streptomycin at 37 °C under 5% CO2. The cells were incubated for 48 h after the addition of 100 μM 3-isobutyl-1-methylxanthine. The cell extracts having tyrosinase activity were prepared.
The melanin quantification assay and the cell-lysate-based activity assay were used for confirming the inhibition of mammalian tyrosinases. Unfortunately, quantifying melanin content using hydroxamate-containing molecules is not feasible because anticancer agents affect cell viability. Therefore, we evaluated tyrosinase activities using B16F10 cell lysates in a small-molecule-concentration-dependent manner.

Assay [7] relates to indoleamine 2,3-dioxygenase. More on the design: method as in PMID 26717206. The settings on record: cited from earlier work.
In assay [8] the target is tyrosinase (Agaricus bisporus, UniProt C7FF04). Put plainly: Enzyme-inhibitory kinetics (Michaelis-Menten fitting with inhibition models). The format is biochemical, mushroom. The settings on record: for Kinetics model (mode of inhibition): model chosen by F-test on reduced χ2. The procedure: Enzyme-inhibitory kinetics—Upon varying the substrate and inhibitor concentrations, the rates of product generation were measured. Simultaneous nonlinear fitting of all the profiles in an inhibitor was performed by minimizing the ꭓ^2-value, the sum of the squared differences in theoretical and experimental values, in the Michaelis–Menten equations assuming competitive, uncompetitive, noncompetitive, and mixed models. […] Reduced ꭓ^2-values, ꭓ^2-values divided by the difference in the numbers of input data and fitting parameters, were compared between the models based on the F-test to identify the most appropriate model.
tyrosinase (Agaricus bisporus, UniProt C7FF04), sequence (C7FF04 1-392): as the sequence (C7FF04 1-392) above
The inhibitory kinetic experiments provide information for understanding the inhibition by small molecules. The rates of product generation were measured for a series of paired substrate and inhibitor concentrations. Subsequent nonlinear fitting using the Michaelis−Menten equations extended with inhibitory models and constants produced the inhibition mode and the binding constant.
Figure 4F lists the parameters for inhibition. […] However, one should be careful not to overinterpret the simulated modes and Ki values. The modes were chosen using the F-test, comparing reduced χ^2-values from each model.

The target of assay [9] is tyrosinase. The settings on record: cited from earlier work; for IC50: ChEMBL-registered tyrosinase inhibitor.
The mark [10] stands for this setting: shift toward lower temperature against DMSO.
[11] abbreviates: mushroom tyrosinase, concentration-dependent profile (Figure 2).

Broadly, the Tm is the temperature at which the thermal transition is half complete. A word on the Ki: it is the equilibrium dissociation constant of an inhibitor or competing ligand from its target. Broadly, the IC50 is the concentration at which inhibition is half-maximal.

Molecules are shown by their SMILES. Read-outs that look alike come from different tables or passages of the source.

mushroom tyrosinase, sequence (C7FF04 1-392 limits assumed): as the sequence (C7FF04 1-392) above

For `O=C(NO)c1ccccc1` [Benzohydroxamic acid], the “Inhibition of mandelate racemase (in words)” value in [1] is “μM range”. In addition, in assay [2], the “Inhibition of carbonic anhydrase (in words)” value is “μM range”. In assay [3], the Tm was 47.15 ± 0.07 °C. For the same compound, the ΔTm in [3] (shift toward lower temperature) is recorded as 2.01 degrees; in [3] (setting [10]), 2.01 °. Also, the Ki in assay [4] was 0.007 ± 0.001 µM; in assay [8], 0.128 µM. In addition, in assay [5], the “Inhibition of arachidonate 5-lipoxygenase (in words)” value is given as “μM range”. Moreover, the “Decrease of tyrosinase activity” value in assay [6] is given as “approximately 97%”. The “Inhibition of indoleamine 2,3-dioxygenase (in words)” value in assay [7] is listed as “μM range”. Further, the “Kinetics model (mode of inhibition)” value in [8] is listed as “noncompetitive”.

Regarding `O=c1cccccc1O` [Tropolone], the Ki in assay [4] (read-out: Ki) came to 0.043 ± 0.003 µM.

In the case of `CC(=O)NO` [Acetohydroxamic acid], in [4] (inhibitory constant converted from IC50 (Cheng-Prusoff), 5 nM enzyme, 500 μM L-DOPA, ± is SD from Monte-Carlo simulation, read-out: Ki), the Ki was 38 ± 8 µM. Besides, in [8], the “Kinetics model (mode of inhibition)” value is reported as “noncompetitive”.

Take `CC(=O)NO` [N-Hydroxyacetamide]: in assay [4] (inhibitory constant converted from IC50 (Cheng-Prusoff), 5 nM enzyme, 500 μM L-DOPA, read-out: Ki), the Ki is greater than 1000 µM. The “Inhibition of tyrosinase (in words)” value in [4] (setting [11]) is “scarcely inhibited”.

`Oc1ccc(-c2nc3ccccc3s2)c(O)c1` [CHEMBL1408767]: the IC50 in assay [9] (ref 61 (supplement ref 7)) is 0.01 µM.

With `Cc1[nH]c2ccccc2c1CCNCc1ccc(/C=C/C(=O)NO)cc1` [Panobinostat], in [3], the Tm was 46.72 ± 0.06 °C. For the same compound, the figures for the ΔTm in [3] (shift toward lower temperature) and in [3] (setting [10]) were 2.44 degrees and 2.44 °, respectively. Moreover, the “Ki values as worded in the text (words or range with mixed units)” value in assay [4] (mushroom tyrosinase) is recorded as “submicromolar range”. Besides, the Ki is 0.04 ± 0.005 µM in assay [4] (read-out: Ki) and 0.29 µM in assay [8] (simultaneous nonlinear fit, read-out: Ki (simulated inhibitory constant from kinetics fit)). In assay [8], the “Kinetics model (mode of inhibition)” value was “competitive”.

Take `O=C(CCCCCCC(=O)NO)NO` [Suberohydroxamic acid]: the Ki in assay [4] (read-out: Ki) turned out to be 1 ± 0.2 µM.

For the compound `C/C=C1\NC(=O)[C@H]2CSSCC/C=C/[C@H](CC(=O)N[C@H](C(C)C)C(=O)N2)OC(=O)[C@H](C(C)C)NC1=O` [Romidepsin], in [4], the “Inhibition of tyrosinase (in words)” value was “inhibited very weakly” and the Ki was greater than 500 µM.

In the case of `CCN(CC)C(=O)/C=C/c1ccc(O)cc1O` [CHEMBL4463984], the IC50 in assay [9] (ref 62 (supplement ref 8)) is 0.011 µM.

Take `CCCC(CCC)C(=O)O` [Valproic acid]: the “Inhibition of tyrosinase (in words)” value in assay [4] (setting [11]) is on record as “inhibited very weakly”. The Ki in assay [4] (read-out: Ki) is greater than 500 µM.

Regarding `NCC(=O)NO` [Glycine hydroxamate], the “Inhibition of tyrosinase (in words)” value in assay [9] is recorded as “comparable inhibitory activity to arbutin”.

`CCCC(=O)NO` [Butyrylhydroxamic acid]: the Ki in assay [4] (read-out: Ki) stood at 32 ± 5 µM.

Take `O=C(CCCCCN1C(=O)c2cccc3cccc(c23)C1=O)NO` [Scriptaid]: in [3], the Tm worked out at 47.31 ± 0.07 °C. Further, the ΔTm in assay [3] (shift toward lower temperature) is recorded as 1.85 degrees; in [3] (setting [10]) it was 1.85 °. For the same compound, the Ki in [4] was 0.18 ± 0.021 µM. Also, the “Kinetics model (mode of inhibition)” value in assay [8] is “competitive”.

As to `CC(/C=C/C(=O)NO)=C\[C@@H](C)C(=O)c1ccc(N(C)C)cc1` [Trichostatin A], the melting temperature (Tm) in [3] came to 46.55 ± 0.07 °C. In addition, the Ki in assay [4] amounted to 1 ± 0.1 µM; in assay [8] (Ki for apo state (mixed model), first value, apo state), 4.5 µM; in assay [8] (Ki for holo state (mixed model), second value, holo state) it was 37 µM. For the same compound, in [8], the “Kinetics model (mode of inhibition)” value is recorded as “mixed”.
